# Experimental data taken from patent US8722725B2, “Caffeoylquinic acid derivatives containing nitrogen, and preparation method, pharmaceutical composition and usage thereof” (Zhejiang Medicine Co., Ltd. Xinchang Pharmaceutical Factory, priority 2007, dated 2014).
# Where two headings read alike, the source gives them in different places.
# How the values were obtained:
# Assay type in all cases: cell-based
# [1] = tested on: human hepatoma carcinoma cells (Hep G2) 2.2.15 cell line; assay: Cell toxicity in 2.2.15 cells (cytopathic cells observed for 8 days, Reed-Muench)
# Description: (§1) Anti-hepatitis (HBV) DNA virus in vitro of the above partial compounds is tested. human hepatoma carcinoma cells (Hep G2) in the 2.2.15 cell line are transfected by DNA cloning of hepatitis B virus (HBV), the inhibitory effect on cell toxicity and HBV DNA secretion are studied. Half inhibition concentration (IC50) and half toxicity concentration (TC50) of samples are measured, the inhibition ratio to HBV DNA in the 2.2.15 cell culture are obtained respectively.
# Virus strains: human hepatoma carcinoma cells (Hep G2) in 2.2.15 cell line are transfected by DNA cloning of hepatitis B virus (HBV).
# Sample treatment: the sample is prepared for a suitable concentration by being dissolved in DMSO and preserved at 4° C. before using. When using, the required concentration is prepared by using a 2.2.15 cell culture medium.
# Test method: The sample is prepared for a 20 mg/ml mother liquor, and is further prepared for a required concentration by using a 2.2.15 cell culture medium. Then the above solution is diluted to 5 times from 200 μg/ml with the culture medium to form eight kinds of concentrations. The above solution is added to a 96-well cell plate, each of concentration is placed in 3 wells, and the medical solution with the same concentration is changed every 4 days. Cell control group without drug is set to observe cytopathic cell as a target, the cytopathic cell is observed under a microscope for 8 days, wherein full destruction is about 4; 75% of cytopathic cells are about 3; 50% of cytopathic cells are about 2; 25% of cytopathic cells are about 1; no cytopathic cells is about 0. Mean cytopathic extent and inhibition ratio of medical solutions for each concentration are calculated. Half toxicity concentration (TC50) and its maximum of non toxicity concentration (TC0) are respectively calculated by the method of Reed-Muench. According to the method of molecular cloning experimental technology, firstly the HBV DNA is extracted from 2.2.15 cells of medical solution of each concentration group and cell control groups, and then a dot blot hybridization and autoradiography of each sample are measured. After measuring IOD value or OD value of every hybridization dot, the inhibition ratio is calculated.
# [2] = tested on: Hep-2 cell (human laryngocarcinoma cell); assay: Toxicity of samples with respect to Hep-2 cell (CPE, Reed-Muench); conditions: 72 h
# Description: Anti-RSV in vitro of the above partial compounds is tested. With Hep-2 cell (human laryngocarcinoma cell) as viral host, Hep-2 cytopathic extent caused by inhibiting RSV is measured and observed for 72 h. Half inhibition concentration (IC50) of samples with respect to respiratory syncytial virus (RSV), its maximum of non toxicity concentration (TC0) and half toxicity concentration (TC50) of samples with respect to Hep-2 cell are respectively calculated by methods of Reed-Muench. Sample treatment: before using, sample is prepared for a suitable concentration by being dissolved in DMSO, and is diluted to 3 times with a culture medium to form eight dilutions. Test method: After Hep-2 cell is cultured in 96-well plate for 24 h, it is infected respiratory syncytial virus (RSV) (200TCID50 infective dose) and absorbed for 4 h to get a viral liquid. Then the viral liquid is discarded. The sample is added thereto according to the above eight dilutions, in the meantime cell control wells of positive drugs, normal cell control wells and viral control wells are set. The cytopathic extent (CPE) is observed for 72 h. Half inhibition concentration (IC50) of samples with respect to respiratory syncytial virus (RSV), its maximum of no toxicity concentration (TC0) and half toxicity concentration (TC50) of samples with respect to Hep-2 cells are respectively calculated by method of Reed-Muench.
# [3] = tested on: respiratory syncytial virus (RSV), Long strain; assay: Inhibitory effect on anti-RSV in vitro (CPE in Hep-2 cells, 72 h, Reed-Muench); conditions: human respiratory syncytial virus, read-out: IC50 (half inhibition concentration, RSV)
# Description: Anti-RSV in vitro of the above partial compounds is tested. With Hep-2 cell (human laryngocarcinoma cell) as viral host, Hep-2 cytopathic extent caused by inhibiting RSV is measured and observed for 72 h. Half inhibition concentration (IC50) of samples with respect to respiratory syncytial virus (RSV), its maximum of non toxicity concentration (TC0) and half toxicity concentration (TC50) of samples with respect to Hep-2 cell are respectively calculated by methods of Reed-Muench.
# Virus strains: RSV, Long strain
# Sample treatment: before using, sample is prepared for a suitable concentration by being dissolved in DMSO, and is diluted to 3 times with a culture medium to form eight dilutions.
# Positive control drug: ribavirin (RBV)
# Test method: After Hep-2 cell is cultured in 96-well plate for 24 h, it is infected respiratory syncytial virus (RSV) (200TCID50 infective dose) and absorbed for 4 h to get a viral liquid. Then the viral liquid is discarded. The sample is added thereto according to the above eight dilutions, in the meantime cell control wells of positive drugs, normal cell control wells and viral control wells are set. The cytopathic extent (CPE) is observed for 72 h. Half inhibition concentration (IC50) of samples with respect to respiratory syncytial virus (RSV), its maximum of no toxicity concentration (TC0) and half toxicity concentration (TC50) of samples with respect to Hep-2 cells are respectively calculated by method of Reed-Muench.
# HIV-1 IIIB virus strain = assay: Inhibitory effect on HIV-1 IIIB in MT-4 cells (P24 antigen ELISA of cell culture supernatant); conditions: Human immunodeficiency virus 1, IIIB, MT4, 96 h, read-out: IC50 (half inhibition concentration, HIV-1 IIIB)
# Description: (§2) Anti-HIV-1 IIIB/H9 in vitro of the above partial compounds is tested. Half inhibition concentration (IC50) of samples and half toxicity concentration (TC50) of samples are respectively measured after culturing MT-4 cells, wherein the cell toxicity is measured by the method of CPE, and the inhibitory effects on HIV-1 IIIB of compounds are measured by method of measuring P24 antigen of cell culture supernatant.
# Virus strains: HIV-1 IIIB virus strain
# Sample treatment: before using, the sample is prepared for a suitable concentration by being dissolved in DMSO and then is further prepared for a cell culture medium.
# Positive control drug: Zidovudine (AZT)
# HIV-1 P24 antigen detection kit: Use products of BioMerieux Corporation in Holland.
# HIV-1 P24 antigen is measured by the method of ELISA. After counting the MT-4 cells, the cells are infected in the virus dose of 100TCID50 and absorbed for 1.5 h in the incubator of 37° C., 5% CO2 and a saturated humidity. The cells are inoculated in a 96-well plate at the density of 2×10^5 cells/ml. After adding a diluted drug 100 ul/well, the culture of the plate is cultured at the incubator of 37° C., 5% CO2 and a saturated humidity for 4 days (96 h). Cell supernatant is taken out and diluted in the ratio of 1:3000. HIV-1 P24 titer is measured according to the test steps provided by HIV-1 P24 antigen kit. Compared adding drug groups with viral control groups, half inhibition concentration (IC50) of samples and half toxicity concentration (TC50) of samples are respectively calculated
# T-lymphocyte MT-4 = assay: Cell toxicity in MT-4 cells by method of CPE (96 h)
# Description: as §2
# Test method: The toxicity of drug in cell (TC50 and TC0) is measured by method of CPE. 100 μl cell is inoculated in 96-well plate at a density of 2×10^5 cells/ml. In the meantime, the medical solution 100 μl of 8 kinds of concentration of samples or positive drug zidovudine which are respectively diluted to 3 times are respectively added thereto, each of concentration is placed in 3 wells which are set to a cell control group. The above plates is cultured at the incubator of 37° C., 5% CO2 and a saturated humidity. CPE Cells are observed at the fourth day (96 h) after adding drug, the cytopathic situation is recorded and TC50 and TC0 are calculated.
# [4] = tested on: hepatitis B virus (HBV) DNA; assay: Inhibition of HBV DNA in 2.2.15 cell culture (dot blot hybridization, autoradiography); conditions: concentration not given
# Description: as §1
# Virus strains: human hepatoma carcinoma cells (Hep G2) in 2.2.15 cell line are transfected by DNA cloning of hepatitis B virus (HBV). […]
# Test method: The sample is prepared for a 20 mg/ml mother liquor, and is further prepared for a required concentration by using a 2.2.15 cell culture medium. […] Mean cytopathic extent and inhibition ratio of medical solutions for each concentration are calculated. Half toxicity concentration (TC50) and its maximum of non toxicity concentration (TC0) are respectively calculated by the method of Reed-Muench. According to the method of molecular cloning experimental technology, firstly the HBV DNA is extracted from 2.2.15 cells of medical solution of each concentration group and cell control groups, and then a dot blot hybridization and autoradiography of each sample are measured. After measuring IOD value or OD value of every hybridization dot, the inhibition ratio is calculated.
# [5] = RSV Long strain in Hep-2 cell, CPE, 72 h
SMILES,Cell toxicity TC0 [1],Cell toxicity TC50 [1],TC0 (maximum of non toxicity concentration) [2],TC50 (half toxicity concentration) [2],"IC50 [3, 5]",IC50 (HIV-1 IIIB virus strain),TC50 (half toxicity concentration) (T-lymphocyte MT-4; human),HBV DNA Inhibition ratio (%) [4],"TC50 (half toxicity concentration) (T-lymphocyte MT-4; MT-4 cells, CPE)","IC50 ([3]; HEp-2, 72 h)"
O=C(/C=C/c1ccc(O)c(O)c1)O[C@@H]1C[C@](O)(C(=O)NC2CC2)C[C@@H](OC(=O)/C=C/c2ccc(O)c(O)c2)[C@H]1O [1-1],1.6 µg/mL,27.59 mg/L,37.04 µg/mL,111.11 mg/L,> 111 mg/L,–,–,–,–,–
O=C(/C=C/c1ccc(O)c(O)c1)O[C@@H]1C[C@](OC(=O)/C=C/c2ccc(O)c(O)c2)(C(=O)N2CCCC2)C[C@@H](O)[C@H]1O [2-3],0.32 µg/mL,3.58 mg/L,4.12 µg/mL,12.35 mg/L,> 12.3 mg/L,–,–,–,–,–
CNC(=O)[C@]1(O)C[C@@H](OC(=O)/C=C/c2ccc(O)c(O)c2)[C@@H](O)[C@H](OC(=O)/C=C/c2ccc(O)c(O)c2)C1 [3-1],1.6 µg/mL,27.59 mg/L,37.04 µg/mL,64.15 mg/L,16.2 mg/L,1.83 mg/L,32.08 mg/L,–,–,–
CNC(=O)[C@]1(OC(=O)/C=C/c2ccc(O)c(O)c2)C[C@@H](O)[C@@H](O)[C@H](OC(=O)/C=C/c2ccc(O)c(O)c2)C1 [3-3],0.32 µg/mL,3.58 mg/L,37.04 µg/mL,111.11 mg/L,> 111 mg/L,–,–,–,–,–
CNC(=O)[C@]1(O)C[C@@H](O)[C@@H](O)[C@H](OC(=O)/C=C/c2ccc(O)c(O)c2)C1 [3-5],8 µg/mL,89.44 mg/L,12.35 µg/mL,37.04 mg/L,7.13 mg/L,–,–,–,–,–
CNC(=O)[C@]1(O)C[C@@H](OC(=O)/C=C/c2ccc(O)c(O)c2)[C@@H](OC(=O)/C=C/c2ccc(O)c(O)c2)[C@H](OC(=O)/C=C/c2ccc(O)c(O)c2)C1 [3-7],>200 µg/mL,>200 mg/L,37.04 µg/mL,64.15 mg/L,> 64.2 mg/L,1.02 mg/L,32.08 mg/L,41.71%,–,–
"Nc1ccn([C@@H]2CS[C@H](CO)O2)c(=O)n1 [3TC, lamivudine, reference compound]",–,–,–,–,–,–,–,40.8~49.39%,–,–
"Cc1cn([C@H]2C[C@H](N=[N+]=[N-])[C@@H](CO)O2)c(=O)[nH]c1=O [AZT, zidovudine, reference compound]",–,–,–,–,–,0.0042 mg/L,–,–,20.00 mg/L,–
"NC(=O)c1ncn([C@@H]2O[C@H](CO)[C@@H](O)[C@H]2O)n1 [RBV, Ribavirin, reference compound]",–,–,–,–,–,–,–,–,–,1.37 mg/L
